From patent US20060039911A1, “Method for the treatment of gastroesophageal reflux disease” (Aphton Corporation, priority 1998, published 2006)

Key:
GERD patients = details: cited from earlier work
parietal cell = details: meal-induced gastric acid secretion; cited from earlier work
gastrin-17 = gastrin-17 (Homo sapiens, UniProt P01350); test: Serum anti-gastrin antibody response of Gastrimmune-immunized mice (ELISA); assay type: in vivo
Excerpt: Gastrin neutralization was achieved by using the immunological composition Gastrimmune which is composed of the amino terminal domain of gastrin-17 linked, via an amino acid or peptide spacer to diphtheria toxoid which acts as the immunogenic carrier.
Serum antibody titers rose within 2 weeks of the initial immunization to levels with an antigen binding capacity of >10^−9M. The presence of anti-gastrin antibodies within the serum of Gastrimmune-immunized mice was confirmed by using an ELISA. As expected, no bound gastrin levels were detected in animals immunized with control immunogen.

[1] = system: pH of the stomach contents; test: pH of the stomach contents of treated pigs; assay type: in vivo
Excerpt: FIG. 1 illustrates experimental data concerning the percentage of time that the gastric contents remain above pH 3 in different groups of pigs treated with ranitidine (4 animals), omeprazole (5 animals) and hG17(1-9) (4 animals), as compared to six (6) control animals.
FIG. 2 illustrates the percentage of time that the gastric contents remain above pH 4 in a group of untreated (control) pigs […] and groups of pigs treated with human gastrin 17(1-9)Ser9-Diphtheria […] (4 animals), ranitidine (4 animals) and omeprazole (5 animals) as described in FIG. 1.
FIG. 3 depicts the baseline median pH of the gastric contents of a group of six (6) untreated (control) pigs and groups of four (4) pigs treated with human G17(1-9)Ser9-Diphtheria Toxoid, […] pigs with ranitidine and five (5) pigs with omeprazole as described in FIG. 1.
In the following Examples, the anti G17 immunogenic composition, 150 mg ranitidine and 60 mg omeprazole were administered to pigs and the resulting changes in the pH of the stomach contents before and after treatment were measured. Specifically, following the stomach pH measurements of the untreated control state of each pig, the stomach pH of the same pigs was measured after the animals were treated with either ranitidine, or composition of human gastrin 17(1-9)-h(G 17)ser9-Diphtheria Toxoid (Gastrimmune), or omeprazole administered individually and at different times in each of four animals (pigs).

[2] = 400-800 mg cimetidine and 150-300 mg ranitidine twice daily

CN/C(=N/CCSCc1nc[nH]c1C)NC#N [cimetidine]
patients with healing of esophagitis, endoscopically determined (mean) (GERD patients; [2]): 48%
patients with symptomatic relief of GERD (mean) (GERD patients; [2]): 61%
efficacy in GERD patients at doses and durations proven effective in healing peptic ulcers (GERD patients; GERD patients, peptic ulcer doses and durations): not effective in GERD

Cc1c(OCC(F)(F)F)ccnc1C[S+]([O-])c1nc2ccccc2[nH]1 (stereo not drawn) [lansoprazole]
effectiveness in alleviating the symptoms of GERD esophagitis compared with histamine H2 blockers (GERD patients; human, in vivo): more effective than histamine H2 blockers

heptadecagastrin [Peptide G17]
potency as stimulator of gastric acid secretion relative to histamine (parietal cell): 1500 times

human gastrin 17(1-9)-h(G 17)ser9-Diphtheria Toxoid [Gastrimmune]
presence of anti-gastrin antibodies within the serum (ELISA) (gastrin-17; Gastrimmune-immunized mice): confirmed
cross-reactivity of the antibodies raised (gastrin-17; mouse, in vivo): cross-reacted with both amidated and glycine-extended gastrin-17
antigen binding capacity of serum antibody titers (gastrin-17; within 2 weeks of the initial immunization): > 10^−9 M
inhibition of acid output from the stomach [1]: inhibited stomach acid output at a level of effectiveness between ranitidine and omeprazole
time that the gastric contents remain above pH 3 ([1]; FIG. 1, 150 mg ranitidine, 60 mg omeprazole): for a longer period of time than in the pigs treated with ranitidine
time that the gastric contents remain above pH 4 ([1]; FIG. 2, 150 mg ranitidine, 60 mg omeprazole): for a longer period of time than in the pigs treated with ranitidine
median pH of the stomach contents ([1]; FIG. 3): higher than ranitidine treated pigs
